We go through three compounds from ChEMBL document CHEMBL5653631, “A Potent and Selective ULK1 Inhibitor Suppresses Autophagy and Sensitizes Cancer Cells to Nutrient Stress” (iScience, 2018).

The target in experiment [1] is Mitogen-activated protein kinase 1 (Homo sapiens) (UniProt P28482). The experiment in a line: Inhibition of human recombinant Erk2 at 15 nM in presence of ATP by radiometric assay relative to control.
The species entered for another experiment is Homo sapiens. The experiment in a line: Inhibition of human recombinant p70S6K at 15 nM related to control ULK1.
In experiment [2] the target is T1, Ephrin type-A receptor 8 (Homo sapiens) (UniProt P29322).
T1 sequence (whole entry): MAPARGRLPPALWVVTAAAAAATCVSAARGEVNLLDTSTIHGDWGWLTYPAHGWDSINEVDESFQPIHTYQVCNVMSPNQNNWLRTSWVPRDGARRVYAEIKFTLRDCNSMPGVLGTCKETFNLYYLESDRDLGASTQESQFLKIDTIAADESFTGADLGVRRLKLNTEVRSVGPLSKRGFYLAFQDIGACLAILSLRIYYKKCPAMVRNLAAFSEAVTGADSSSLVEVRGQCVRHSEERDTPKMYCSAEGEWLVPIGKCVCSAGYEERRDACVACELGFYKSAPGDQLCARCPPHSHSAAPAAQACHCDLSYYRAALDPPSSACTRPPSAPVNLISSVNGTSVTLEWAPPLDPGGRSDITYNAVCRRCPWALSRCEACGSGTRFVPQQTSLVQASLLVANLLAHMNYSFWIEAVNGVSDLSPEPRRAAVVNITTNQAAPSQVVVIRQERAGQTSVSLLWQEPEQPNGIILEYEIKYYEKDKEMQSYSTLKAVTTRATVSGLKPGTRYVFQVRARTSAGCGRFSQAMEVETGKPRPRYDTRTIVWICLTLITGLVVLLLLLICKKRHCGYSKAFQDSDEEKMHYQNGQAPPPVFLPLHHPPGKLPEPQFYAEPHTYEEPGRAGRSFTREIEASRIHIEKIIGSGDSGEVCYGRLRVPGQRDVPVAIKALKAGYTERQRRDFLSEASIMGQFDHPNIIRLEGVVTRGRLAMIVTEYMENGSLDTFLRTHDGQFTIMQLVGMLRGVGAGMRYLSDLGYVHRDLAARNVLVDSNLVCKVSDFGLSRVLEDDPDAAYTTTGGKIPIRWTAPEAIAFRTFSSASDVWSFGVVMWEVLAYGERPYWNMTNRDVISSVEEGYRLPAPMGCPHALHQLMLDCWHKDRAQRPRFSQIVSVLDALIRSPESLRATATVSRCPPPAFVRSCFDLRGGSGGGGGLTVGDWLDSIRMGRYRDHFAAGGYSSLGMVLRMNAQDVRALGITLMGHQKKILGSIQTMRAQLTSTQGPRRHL
The experiment is described as follows: Inhibition of human recombinant EphA8 at 15 nM in presence of ATP by radiometric assay relative to control.

In experiment [3] the target is Protein kinase C alpha type (Homo sapiens) (UniProt P17252). The experiment is described as follows: Inhibition of human recombinant PKCa at 40 nM related to control ULK1.
The target of experiment [4] is Receptor tyrosine-protein kinase erbB-4 (Homo sapiens) (UniProt Q15303). The experiment is described as follows: Inhibition of human recombinant ErbB4 at 40 nM in presence of ATP by radiometric assay relative to control.
The target in experiment [5] is Serine/threonine-protein kinase N2 (Homo sapiens) (UniProt Q16513). The experiment is described as follows: Inhibition of human recombinant PKN2 at 40 nM related to control ULK1.
In experiment [6] the target is Fibroblast growth factor receptor 3 (Homo sapiens) (UniProt P22607). The experiment is described as follows: Inhibition of human recombinant FGFR3 at 40 nM in presence of ATP by radiometric assay relative to control.
Experiment [7] addresses Dual specificity protein kinase CLK4 (Homo sapiens) (UniProt Q9HAZ1). The experiment is described as follows: Inhibition of human recombinant CLK4 at 500 nM related to control ULK1.
Experiment [8] has as its target Calcium/calmodulin-dependent protein kinase kinase 1 (Homo sapiens) (UniProt Q8N5S9). The experiment in a line: Inhibition of human recombinant CaMKK1 at 500 nM in presence of ATP by radiometric assay relative to control.
Experiment [9] concerns the target T2, Serine/threonine-protein kinase TAO2 (Homo sapiens) (UniProt Q9UL54).
T2 sequence (whole entry): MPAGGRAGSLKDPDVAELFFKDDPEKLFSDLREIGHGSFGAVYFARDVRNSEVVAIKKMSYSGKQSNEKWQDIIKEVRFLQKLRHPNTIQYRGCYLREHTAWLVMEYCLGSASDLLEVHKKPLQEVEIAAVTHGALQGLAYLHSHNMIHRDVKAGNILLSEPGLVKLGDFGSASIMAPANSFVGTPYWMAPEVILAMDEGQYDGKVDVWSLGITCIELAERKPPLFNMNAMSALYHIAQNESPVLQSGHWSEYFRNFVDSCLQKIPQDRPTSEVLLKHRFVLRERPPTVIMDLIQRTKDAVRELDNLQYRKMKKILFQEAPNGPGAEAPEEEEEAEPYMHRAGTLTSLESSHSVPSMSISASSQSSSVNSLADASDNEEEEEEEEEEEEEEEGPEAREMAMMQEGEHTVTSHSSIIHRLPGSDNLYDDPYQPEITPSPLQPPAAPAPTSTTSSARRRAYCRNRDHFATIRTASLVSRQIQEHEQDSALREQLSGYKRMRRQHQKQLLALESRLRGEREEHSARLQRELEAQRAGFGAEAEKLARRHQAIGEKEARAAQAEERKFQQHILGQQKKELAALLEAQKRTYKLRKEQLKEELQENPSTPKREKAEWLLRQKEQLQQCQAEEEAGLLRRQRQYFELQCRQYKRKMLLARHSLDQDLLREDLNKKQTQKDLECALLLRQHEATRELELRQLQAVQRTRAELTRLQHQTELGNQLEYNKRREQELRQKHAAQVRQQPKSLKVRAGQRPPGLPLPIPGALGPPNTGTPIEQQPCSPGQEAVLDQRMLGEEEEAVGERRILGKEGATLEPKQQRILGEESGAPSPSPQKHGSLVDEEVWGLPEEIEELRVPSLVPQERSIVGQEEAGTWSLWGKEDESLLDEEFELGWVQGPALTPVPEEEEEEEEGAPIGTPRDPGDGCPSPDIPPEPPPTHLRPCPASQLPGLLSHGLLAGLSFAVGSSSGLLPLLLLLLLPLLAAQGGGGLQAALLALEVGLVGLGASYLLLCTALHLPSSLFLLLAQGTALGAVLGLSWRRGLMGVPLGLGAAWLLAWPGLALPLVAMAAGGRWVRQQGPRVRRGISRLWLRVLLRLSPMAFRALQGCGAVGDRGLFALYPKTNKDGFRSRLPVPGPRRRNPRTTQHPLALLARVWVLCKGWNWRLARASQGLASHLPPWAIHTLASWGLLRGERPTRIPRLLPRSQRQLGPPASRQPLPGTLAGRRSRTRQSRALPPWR
The experiment in a line: Inhibition of human recombinant TAO2 at 500 nM related to control ULK1.

SMILES strings stand for the structures.

Sequence of Mitogen-activated protein kinase 1 (Homo sapiens) (P28482 whole entry): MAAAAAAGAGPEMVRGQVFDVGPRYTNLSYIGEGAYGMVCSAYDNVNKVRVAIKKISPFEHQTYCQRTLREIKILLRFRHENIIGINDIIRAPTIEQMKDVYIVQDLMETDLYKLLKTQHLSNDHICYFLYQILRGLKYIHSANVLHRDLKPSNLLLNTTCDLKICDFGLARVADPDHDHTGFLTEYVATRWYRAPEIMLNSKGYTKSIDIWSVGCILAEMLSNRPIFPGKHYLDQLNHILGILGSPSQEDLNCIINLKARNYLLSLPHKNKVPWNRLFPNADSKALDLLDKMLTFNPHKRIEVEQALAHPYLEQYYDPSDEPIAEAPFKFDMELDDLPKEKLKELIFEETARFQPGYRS
Sequence of Fibroblast growth factor receptor 3 (Homo sapiens) (P22607 23-806 limits assumed): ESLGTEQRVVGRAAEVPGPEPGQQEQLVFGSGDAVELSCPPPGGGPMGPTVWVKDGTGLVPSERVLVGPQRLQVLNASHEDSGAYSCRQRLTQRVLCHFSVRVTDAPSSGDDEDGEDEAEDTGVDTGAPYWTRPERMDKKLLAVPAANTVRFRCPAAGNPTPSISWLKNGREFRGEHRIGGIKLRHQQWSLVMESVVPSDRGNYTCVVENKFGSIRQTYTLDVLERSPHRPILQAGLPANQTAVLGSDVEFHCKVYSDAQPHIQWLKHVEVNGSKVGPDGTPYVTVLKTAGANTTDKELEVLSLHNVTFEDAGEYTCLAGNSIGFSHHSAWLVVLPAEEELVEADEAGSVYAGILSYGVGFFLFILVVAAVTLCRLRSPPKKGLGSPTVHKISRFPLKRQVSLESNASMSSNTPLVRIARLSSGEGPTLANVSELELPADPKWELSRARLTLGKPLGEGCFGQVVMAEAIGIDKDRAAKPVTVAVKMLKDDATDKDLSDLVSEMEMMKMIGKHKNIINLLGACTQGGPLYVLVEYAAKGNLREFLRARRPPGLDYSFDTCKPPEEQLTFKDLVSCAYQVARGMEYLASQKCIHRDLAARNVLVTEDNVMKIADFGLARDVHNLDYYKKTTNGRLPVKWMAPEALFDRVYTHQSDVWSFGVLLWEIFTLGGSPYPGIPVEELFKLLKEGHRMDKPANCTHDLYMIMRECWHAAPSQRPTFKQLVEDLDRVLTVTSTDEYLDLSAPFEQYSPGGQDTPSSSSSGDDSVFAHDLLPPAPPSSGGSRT
Sequence of Receptor tyrosine-protein kinase erbB-4 (Homo sapiens) (Q15303 whole entry): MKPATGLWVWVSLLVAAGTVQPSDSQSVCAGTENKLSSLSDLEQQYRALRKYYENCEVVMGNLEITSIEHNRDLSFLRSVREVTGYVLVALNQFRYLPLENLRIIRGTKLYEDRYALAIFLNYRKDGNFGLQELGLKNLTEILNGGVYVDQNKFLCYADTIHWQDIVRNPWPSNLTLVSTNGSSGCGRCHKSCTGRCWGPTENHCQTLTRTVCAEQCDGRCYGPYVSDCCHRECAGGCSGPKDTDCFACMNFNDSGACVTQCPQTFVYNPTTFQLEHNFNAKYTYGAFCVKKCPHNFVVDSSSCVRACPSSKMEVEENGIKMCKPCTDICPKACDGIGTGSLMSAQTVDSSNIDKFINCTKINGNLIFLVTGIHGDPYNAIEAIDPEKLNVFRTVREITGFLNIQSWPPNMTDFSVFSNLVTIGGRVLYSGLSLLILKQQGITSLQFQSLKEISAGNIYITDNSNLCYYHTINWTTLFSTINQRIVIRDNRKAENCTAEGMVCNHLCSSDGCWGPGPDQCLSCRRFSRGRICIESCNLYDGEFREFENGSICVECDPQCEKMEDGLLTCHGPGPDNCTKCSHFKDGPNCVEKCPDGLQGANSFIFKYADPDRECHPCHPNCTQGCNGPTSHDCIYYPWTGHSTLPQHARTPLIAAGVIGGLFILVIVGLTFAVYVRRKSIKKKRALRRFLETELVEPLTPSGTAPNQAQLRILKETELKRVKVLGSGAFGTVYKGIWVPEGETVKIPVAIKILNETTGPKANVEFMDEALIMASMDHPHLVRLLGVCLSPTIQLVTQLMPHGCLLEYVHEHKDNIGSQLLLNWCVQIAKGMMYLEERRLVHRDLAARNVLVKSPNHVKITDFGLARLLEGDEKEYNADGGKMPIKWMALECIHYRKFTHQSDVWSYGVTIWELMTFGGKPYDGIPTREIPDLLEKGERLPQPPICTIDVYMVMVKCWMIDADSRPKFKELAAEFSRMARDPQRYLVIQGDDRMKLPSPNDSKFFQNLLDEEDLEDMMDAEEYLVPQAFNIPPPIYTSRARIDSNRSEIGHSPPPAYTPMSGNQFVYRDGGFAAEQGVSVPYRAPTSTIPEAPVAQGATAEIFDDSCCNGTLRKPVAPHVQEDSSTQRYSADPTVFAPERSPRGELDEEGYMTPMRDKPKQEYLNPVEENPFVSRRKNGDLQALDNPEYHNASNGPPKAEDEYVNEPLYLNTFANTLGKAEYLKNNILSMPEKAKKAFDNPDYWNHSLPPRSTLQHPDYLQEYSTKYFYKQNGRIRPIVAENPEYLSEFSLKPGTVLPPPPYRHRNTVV
Sequence of Dual specificity protein kinase CLK4 (Homo sapiens) (Q9HAZ1 whole entry, looked up): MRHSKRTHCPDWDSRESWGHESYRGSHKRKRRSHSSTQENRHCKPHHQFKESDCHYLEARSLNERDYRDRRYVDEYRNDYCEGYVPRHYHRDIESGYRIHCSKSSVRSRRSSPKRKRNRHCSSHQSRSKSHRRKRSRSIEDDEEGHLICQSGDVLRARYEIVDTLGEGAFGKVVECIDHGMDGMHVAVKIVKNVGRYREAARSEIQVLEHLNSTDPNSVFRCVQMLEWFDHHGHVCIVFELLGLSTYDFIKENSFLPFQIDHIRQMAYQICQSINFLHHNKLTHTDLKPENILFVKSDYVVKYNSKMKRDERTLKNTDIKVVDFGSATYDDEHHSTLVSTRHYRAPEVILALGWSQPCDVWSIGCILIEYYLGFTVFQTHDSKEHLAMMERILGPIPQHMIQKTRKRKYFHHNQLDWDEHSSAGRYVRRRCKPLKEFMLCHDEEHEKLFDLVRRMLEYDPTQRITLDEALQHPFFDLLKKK
Sequence of Calcium/calmodulin-dependent protein kinase kinase 1 (Homo sapiens) (Q8N5S9 whole entry, looked up): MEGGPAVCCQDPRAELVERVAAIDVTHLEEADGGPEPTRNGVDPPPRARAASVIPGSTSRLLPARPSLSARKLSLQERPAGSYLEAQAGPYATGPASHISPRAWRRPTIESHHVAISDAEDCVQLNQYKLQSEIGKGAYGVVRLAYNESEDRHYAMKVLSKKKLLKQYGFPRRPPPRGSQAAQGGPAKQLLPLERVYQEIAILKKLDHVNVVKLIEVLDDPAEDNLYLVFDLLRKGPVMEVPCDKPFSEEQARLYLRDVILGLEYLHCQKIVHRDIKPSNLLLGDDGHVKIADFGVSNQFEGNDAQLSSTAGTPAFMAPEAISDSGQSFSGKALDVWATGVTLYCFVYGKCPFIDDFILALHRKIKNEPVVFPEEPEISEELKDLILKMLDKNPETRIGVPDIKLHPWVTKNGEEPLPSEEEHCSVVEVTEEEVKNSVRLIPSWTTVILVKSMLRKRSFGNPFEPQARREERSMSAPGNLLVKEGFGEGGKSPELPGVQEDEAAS
Sequence of Serine/threonine-protein kinase N2 (Homo sapiens) (Q16513 whole entry, looked up): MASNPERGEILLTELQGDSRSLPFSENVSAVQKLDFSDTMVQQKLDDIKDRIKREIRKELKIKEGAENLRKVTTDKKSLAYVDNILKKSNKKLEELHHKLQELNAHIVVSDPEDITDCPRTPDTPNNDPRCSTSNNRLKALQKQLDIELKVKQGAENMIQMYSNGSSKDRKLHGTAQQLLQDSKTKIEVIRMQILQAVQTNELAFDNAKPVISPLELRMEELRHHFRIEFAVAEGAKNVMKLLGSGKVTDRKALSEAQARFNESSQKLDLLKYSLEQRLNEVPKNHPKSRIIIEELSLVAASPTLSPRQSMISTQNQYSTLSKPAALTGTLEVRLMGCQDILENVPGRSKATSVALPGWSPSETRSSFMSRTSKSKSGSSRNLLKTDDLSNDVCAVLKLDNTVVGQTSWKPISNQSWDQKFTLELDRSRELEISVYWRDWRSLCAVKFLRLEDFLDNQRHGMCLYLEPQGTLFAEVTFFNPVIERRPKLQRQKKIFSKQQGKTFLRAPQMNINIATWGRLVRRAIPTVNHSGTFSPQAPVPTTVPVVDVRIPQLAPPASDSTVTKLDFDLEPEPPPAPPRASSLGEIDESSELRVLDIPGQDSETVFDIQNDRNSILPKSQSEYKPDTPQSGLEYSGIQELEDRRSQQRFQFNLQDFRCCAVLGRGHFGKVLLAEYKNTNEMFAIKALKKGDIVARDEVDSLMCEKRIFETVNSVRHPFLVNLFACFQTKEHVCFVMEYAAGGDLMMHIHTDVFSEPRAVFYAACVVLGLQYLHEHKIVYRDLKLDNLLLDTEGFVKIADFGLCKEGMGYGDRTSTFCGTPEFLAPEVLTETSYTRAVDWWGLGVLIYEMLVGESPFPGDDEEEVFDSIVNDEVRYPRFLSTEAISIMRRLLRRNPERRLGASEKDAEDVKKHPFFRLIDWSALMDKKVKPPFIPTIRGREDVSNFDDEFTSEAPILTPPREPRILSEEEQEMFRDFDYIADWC

Regarding `CC(C)[C@H](NC(=O)c1cc(-c2cnn3cc(-c4ccc(OCCN5CCCCC5)cc4)cnc23)cs1)C(F)(F)F`, the inhibition in experiment [1] and in experiment [2] was 0% each time. Moreover, the fold change (FC) in the experiment listed under Homo sapiens is 0.19.

In the case of `O=C(N[C@@H](C1CC1)C(F)(F)F)c1cc(-c2cnn3cc(-c4ccc(F)cc4)cnc23)cs1`, the fold change (FC) in experiment [3] and in [5] was 0 each time. In addition, the inhibition in experiment [4] and in [6] was 0% each time.

Turning to `CNC(=O)c1ccccc1Oc1nc(Nc2cc(OC)c(OC)c(OC)c2)ncc1Br`, the fold change (FC) in experiment [7] was found to be 0.11; in [9] it was 0. The inhibition – broadly, the drop in the measured response relative to a control, in per cent – in [8] was 8%.
